Here are results for two compounds from PMC12409219, “Binding kinetics, bias, receptor internalization and effects on insulin secretion in vitro and in vivo of a novel GLP‐1R/GIPR dual agonist, HISHS‐2001” (Diabetes, Obesity & Metabolism, 2025).

The target of data set [1] is T1, human GLP-1R (Homo sapiens, UniProt P43220). The data set is described as follows: cAMP assay in HEK293-SNAP-GLP-1R cells (HTRF). Format: cell-based. To be noted: 30-min stimulation, n = 4, compared to native GLP-1(7-36)NH2.
Description: HEK293 cells stably expressing human GLP‐1R or human GIPR, each self‐labelling protein tag (SNAP)‐tagged at their N‐termini (Cisbio), were cultured in Dulbecco's Modified Eagle's Medium (DMEM) medium (Gibco), 10% fetal bovine serum (FBS) and 1% penicillin/streptomycin.
HEK293‐SNAP‐GLP‐1R, HEK293‐SNAP‐GIPR or GLP‐1R‐β‐arrestin 2 cells were seeded overnight in 12‐well plates. On the day of the assay, cells were resuspended and dispensed into white, 96‐well plates containing the indicated concentration of agonist prepared in serum‐free medium containing 0.1% bovine serum albumin (BSA). After a 30‐min stimulation, cAMP detection reagents (cAMP dynamic kit, Cisbio) were added, and the plate was read 60 min later using an HTRF‐compatible plate reader. Data were analysed using three‐parameter logistic fitting (GraphPad Prism 9.0) and normalised to the maximal fitted response of the reference ligand (GLP‐1 or semaglutide) for presentation purposes.
In data set [2] the target is T1, human GLP-1R. The data set is described as follows: GLP-1R binding kinetics, TR-FRET competitive kinetics with exendin(9-39)-FITC. Particulars: calculated from K on and K off; HISHS-2001 versus tirzepatide. The method, then:
HEK293‐SNAP‐GLP‐1R cells were seeded overnight in 12‐well plates. On the day of the assay, cells were labelled with 40 nM Lumi4‐Tb (Cisbio) in complete medium for 30 min. After washing, labelled cells were preincubated for 20 min in Hanks' Balanced Salt Solution (HBSS) supplemented with 0.1% BSA and a metabolic inhibitor cocktail (10 mM NaN3, 20 mM 2‐deoxyglucose) to inhibit GLP‐1R endocytosis that would otherwise influence binding assays. Ligand binding was then detected in real time using time‐resolved Förster resonance energy transfer (TR‐FRET) using a Flexstation 3 plate reader (Molecular Devices). […] Plate reader settings included 340 nm λexcitation, 520 nm (cut‐off 495 nm) and 620 nm (cut‐off 570 nm) λemission, 400 μs delay and 1500 μs integration time. Association and dissociation rate constants were calculated using the kinetics of competitive binding algorithm in GraphPad Prism 9.0.

The next data set can be described thus: in vivo. Further details: species or system mouse. Particulars: sc; for Tmax / half-life: male, CD-1, mouse; for stability in the circulation: mouse. The protocol:
Ninety animals were procured from LAR. Animals were acclimatized for 1 day. On Day 0, each animal was weighed. […] Animals were injected subcutaneously at 1 mg/kg for the corresponding agonist (dose volume: 10 mL/kg) using 26½ gauge needles. At 1, 2, 4, 8, 12, 24, 48, 72, and 96 h, ~500 μL of blood was collected by retro‐orbital plexus puncture using capillary micro‐centrifuge tubes containing anticoagulant (15 μL 10% K2 EDTA). Plasma was separated from blood by centrifugation at ~3300 rpm for 10 min at 4°C. HISHS‐2001 concentrations were estimated using liquid chromatography with tandem mass spectrometry.

T1 sequence (P43220 24-463): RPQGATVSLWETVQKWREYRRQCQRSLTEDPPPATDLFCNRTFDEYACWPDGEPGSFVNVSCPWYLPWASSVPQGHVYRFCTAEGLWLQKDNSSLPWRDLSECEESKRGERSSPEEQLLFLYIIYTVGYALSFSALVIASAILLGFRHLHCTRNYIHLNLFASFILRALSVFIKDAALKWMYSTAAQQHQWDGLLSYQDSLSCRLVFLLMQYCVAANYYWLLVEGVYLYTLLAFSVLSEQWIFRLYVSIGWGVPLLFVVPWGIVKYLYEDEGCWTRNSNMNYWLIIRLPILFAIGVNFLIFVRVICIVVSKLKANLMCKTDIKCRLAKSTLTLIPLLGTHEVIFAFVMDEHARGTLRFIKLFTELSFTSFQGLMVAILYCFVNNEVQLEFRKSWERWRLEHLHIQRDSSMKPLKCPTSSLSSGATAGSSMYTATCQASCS

By Tmax is commonly meant the time from dosing to the highest level. As a reminder, the half-life is how long it takes for the measured level to halve. The low end stands for fast loss, the high end for slow loss. In the case of `CC[C@H](C)[C@H](NC(=O)[C@H](CC(C)C)NC(=O)[C@H](Cc1c[nH]c2ccccc12)NC(=O)[C@H](CCC(N)=O)NC(=O)[C@@H](NC(=O)[C@H](Cc1ccccc1)NC(=O)[C@H](C)NC(=O)[C@H](CCCCNC(=O)COCCOCCNC(=O)C(C)(C)NC(=O)CC[C@H](NC(=O)CCCCCCCCCCCCCCCCCCC(=O)O)C(=O)O)NC(=O)[C@H](CCC(N)=O)NC(=O)[C@H](C)NC(=O)[C@@H](NC(=O)[C@H](CCCCN)NC(=O)[C@H](CC(=O)O)NC(=O)[C@H](CC(C)C)NC(=O)C(C)(C)NC(=O)[C@@H](NC(=O)[C@H](CO)NC(=O)[C@H](Cc1ccc(O)cc1)NC(=O)[C@H](CC(=O)O)NC(=O)[C@H](CO)NC(=O)[C@@H](NC(=O)[C@H](Cc1ccccc1)NC(=O)[C@@H](NC(=O)CNC(=O)[C@H](CCC(=O)O)NC(=O)C(C)(C)NC(=O)[C@@H](N)Cc1ccc(O)cc1)[C@@H](C)O)[C@@H](C)O)[C@@H](C)CC)[C@@H](C)CC)C(C)C)C(=O)N[C@@H](C)C(=O)NCC(=O)NCC(=O)N1CCC[C@H]1C(=O)N[C@@H](CO)C(=O)N[C@@H](CO)C(=O)NCC(=O)N[C@@H](C)C(=O)N1CCC[C@H]1C(=O)N1CCC[C@H]1C(=O)N1CCC[C@H]1C(=O)N[C@@H](CO)C(N)=O` [HISHS-2001], on human GLP-1R [1], the “cAMP potency (pEC50) at the GLP-1R” value is “significantly reduced potency”. In addition, the “calculated Kd at GLP-1R” value on human GLP-1R [2] was “also lower”. In “in vivo”, the Tmax came out at 8 h, the half-life was 10.1 h and the “stability in the circulation” value is given as “similar”.

Take `CC[C@H](C)[C@H](NC(=O)[C@H](CC(C)C)NC(=O)[C@H](Cc1c[nH]c2ccccc12)NC(=O)[C@H](CCC(N)=O)NC(=O)[C@@H](NC(=O)[C@H](Cc1ccccc1)NC(=O)[C@H](C)NC(=O)[C@H](CCCCNC(=O)COCCOCCNC(=O)COCCOCCNC(=O)CC[C@H](NC(=O)CCCCCCCCCCCCCCCCCCC(=O)O)C(=O)O)NC(=O)[C@H](CCC(N)=O)NC(=O)[C@H](C)NC(=O)[C@@H](NC(=O)[C@H](CCCCN)NC(=O)[C@H](CC(=O)O)NC(=O)[C@H](CC(C)C)NC(=O)C(C)(C)NC(=O)[C@@H](NC(=O)[C@H](CO)NC(=O)[C@H](Cc1ccc(O)cc1)NC(=O)[C@H](CC(=O)O)NC(=O)[C@H](CO)NC(=O)[C@@H](NC(=O)[C@H](Cc1ccccc1)NC(=O)[C@@H](NC(=O)CNC(=O)[C@H](CCC(=O)O)NC(=O)C(C)(C)NC(=O)[C@@H](N)Cc1ccc(O)cc1)[C@@H](C)O)[C@@H](C)O)[C@@H](C)CC)[C@@H](C)CC)C(C)C)C(=O)N[C@@H](C)C(=O)NCC(=O)NCC(=O)N1CCC[C@H]1C(=O)N[C@@H](CO)C(=O)N[C@@H](CO)C(=O)NCC(=O)N[C@@H](C)C(=O)N1CCC[C@H]1C(=O)N1CCC[C@H]1C(=O)N1CCC[C@H]1C(=O)N[C@@H](CO)C(N)=O` [tirzepatide, reference compound]: in “in vivo”, the Tmax stood at 8 h, the half-life was 8.78 h and the “stability in the circulation” value is on record as “similar”.
